Measured values from the supplement of paper PMC3974653.
Where a name gives a salt, the structure may show the parent alone.

Test system: MTT (mouse pheochromocytoma)
Assay: IC50 of cell viability (ATP content)
Settings: (24 or 48 h)
In short: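 After overnight culture at 37°C, 5% CO2 in white 1536-well plates, MTT mouse pheochromocytoma cells were given 23 nl of library compound in DMSO by pintool across 8 concentrations, spanning final 0.5 nM to 46 µM. Following 24 or 48 hrs, CellTiter-Glo luminescence was read after 15 minutes and normalised against positive-control (100%) and DMSO (0%) wells. A four-parameter logistic model provided the IC50.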

Row | IC50 of cell viability [µM] | SMILES
1 | > 46 | N[S+](=O)([O-])c1cc2c(cc1Cl)N[C@@H](CC1CCCC1)N[S+]2(=O)[O-] [Cyclopenthiazide]
2 | > 46 | CN(C)CCOC(=O)[C@@H](c1ccccc1)C1(O)CCCC1 [Cyclopentolate hydrochloride]
3 | > 46 | C/C=C\C[C@H](C)[C@H](O)[C@H]1C(=O)N[C@@H](CC)C(=O)N(C)CC(=O)N(C)[C@@H](CC(C)C)C(=O)N[C@@H](C(C)C)C(=O)N(C)[C@@H](CC(C)C)C(=O)N[C@@H](C)C(=O)N[C@@H](C)C(=O)N(C)[C@@H](CC(C)C)C(=O)N(C)[C@@H](CC(C)C)C(=O)N(C)[C@@H](C(C)C)C(=O)N1C [Cyclosporin A]
4 | > 46 | NC(=O)C1c2ccccc2CCc2ccccc21 [Cyheptamide]
5 | > 46 | Cl.NCCS [Cysteamine hydrochloride]
6 | > 46 | NCCS [Cysteamine]
7 | > 46 | C[N+](C)(C)CCOP(=O)([O-])OP(=O)([O-])OCC1OC(n2ccc(N)nc2=O)[C@H](O)[C@@H]1O (stereo partly drawn) [Cytidine 5'-diphosphocholine sodium salt hydrate]
8 | > 46 | OCC1(O)OC[C@@H](O)[C@H](O)[C@@H]1O (stereo partly drawn) [D-(-)-TAGATOSE]
9 | > 46 | C[C@@H](N)C(=O)O [D-ALANINE]
10 | > 46 | NC(=O)C[C@@H](N)C(=O)O [D-ASPARAGINE]
11 | > 46 | N[C@H](CC(=O)O)C(=O)O [D-ASPARTIC ACID]
12 | > 46 | N[C@H](CCC(=O)O)C(=O)O [D-GLUTAMIC ACID]
13 | > 46 | NC(=O)CC[C@@H](N)C(=O)O [D-GLUTAMINE]
14 | > 46 | O=C[C@H](O)[C@@H](O)[C@H](O)[C@H](O)CO [D-Glucose]
15 | > 46 | CC(C)C[C@@H](N)C(=O)O [D-LEUCINE]
16 | > 46 | O=C(CO)C(O)C(O)C(O)CO [D-LEVULOSE]
17 | > 46 | C=C(C)C1CC=C(C)CC1 [D-LIMONENE]
18 | > 46 | OC[C@@H](O)[C@@H](O)[C@H](O)[C@H](O)CO [D-Mannitol]
19 | > 46 | CC(C)(CO)[C@@H](O)C(=O)NCCC(=O)[O-] [D-Pantothenic acid hemicalcium salt]

Row | IC50 of cell viability [µM] | SMILES
20 | > 46 | N[C@H](CO)C(=O)O [D-SERINE]
21 | > 46 | N[C@H](Cc1c[nH]c2ccccc12)C(=O)O [D-TRYPTOPHAN]
22 | > 46 | N[C@@H]1CONC1=O [D-cycloserine]
23 | > 46 | CCNC(=O)NCCCOc1cccc(CN2CCCCC2)c1 [DALCOTIDINE]
24 | > 46 | O=C(O)Cc1ccc(CCN[S+](=O)([O-])c2ccc(Cl)cc2)cc1 [DALTROBANUM]
25 | > 46 | O=C1CN(/N=C/c2ccc(-c3ccc([N+](=O)[O-])cc3)o2)C(=O)N1 [DANTROLENE]
26 | > 46 | NC(=O)C(c1ccccc1)(c1ccccc1)[C@@H]1CCN(CCc2ccc3c(c2)CCO3)C1 [DARIFENACIN HYDROBROMIDE]
27 | > 46 | CC(C)CN(C[C@@H](O)[C@H](Cc1ccccc1)NC(=O)O[C@@H]1CO[C@H]2OCC[C@H]21)[S+](=O)([O-])c1ccc(N)cc1 [DARUNAVIR ETHANOLATE]
28 | > 46 | Cc1nc(Nc2ncc(C(=O)Nc3c(C)cccc3Cl)s2)cc(N2CCN(CCO)CC2)n1 [DASATINIB]
29 | > 46 | O=C(O)c1ccc(OCCn2ccnc2)cc1 [DAZOXIBENUM]
30 | > 46 | CC(=O)N[C@@H](CCC(=O)O)C(=O)O [DEANOLI ACEGLUMAS]
31 | > 46 | CCCCCCCCCC(=O)NO [DECANOHYDROXAMIC ACID]
32 | > 46 | CCCCCCCCCCOc1cc2c(O)c(C(=O)OCC)cnc2cc1OCC [DECOQUINATE]
33 | > 46 | CCCCCCCC/C=C\CCCCCCCCN [DECTAFLURUM]
34 | > 46 | O=C(O)c1ccc(-n2nc(-c3ccccc3O)nc2-c2ccccc2O)cc1 [DEFERASIROX]
35 | > 46 | CC1C(=O)C(=O)C=CN1C (stereo not drawn) [DEFERIPRONE]
36 | > 46 | C=C1N[C@]2(C(=O)COC(C)=O)[C@@H](C[C@H]3[C@@H]4CCC5=CC(=O)C=C[C@]5(C)[C@H]4[C@@H](O)C[C@@]32C)O1 [DEFLAZACORT]
37 | > 46 | CC(CCC(=O)O)C1CCC2C3C(=O)C[C@@H]4CC(=O)CC[C@@]4(C)C3CC(=O)[C@]12C (stereo partly drawn) [DEHYDROCHOLIC ACID]
38 | > 46 | CCOC(=O)[C@H](CCc1ccccc1)N[C@@H](C)C(=O)N(CC(=O)O)C1Cc2ccccc2C1 [DELAPRIL HYDROCHLORIDE]

Row | IC50 of cell viability [µM] | SMILES
39 | > 46 | CC(C)Nc1cccnc1N1CCN(C(=O)c2cc3cc(N[S+](C)(=O)[O-])ccc3[nH]2)CC1 [DELAVIRDINE MESYLATE]
40 | > 46 | Cc1cc(O)cc2c1O[C@](C)(CCC[C@H](C)CCC[C@H](C)CCCC(C)C)CC2 [DELTA-TOCOPHEROL, D-]
41 | > 46 | COc1ccc(-c2cc(C(F)F)nn2-c2ccc([S+](N)(=O)[O-])cc2)cc1F [DERACOXIB]
42 | > 46 | CC1OC(OC2CCC3(C)C(CCC4C3CC(O)C3(C)C(C5=CC(=O)OC5)CCC43O)C2)CC(O)C1OC1CC(O)C(OC2CC(O)C(OC3OC(CO)C(O)C(O)C3O)C(C)O2)C(C)O1 (stereo not drawn) [DESLANOSIDE]
43 | > 46 | CC(=O)O.N=C(N)NCCCC(NC(=O)C1CCCN1C(=O)C1CSSCCC(=O)NC(Cc2ccc(O)cc2)C(=O)NC(Cc2ccccc2)C(=O)NC(CCC(N)=O)C(=O)NC(CC(N)=O)C(=O)N1)C(=O)NCC(N)=O.O.O.O (stereo not drawn) [DESMOPRESSIN ACETATE]
44 | > 46 | CC(=O)O.N=C(N)NCCCC(NC(=O)C1CCCN1C(=O)C1CSSCCC(=O)NC(Cc2ccc(O)cc2)C(=O)NC(Cc2ccccc2)C(=O)NC(CCC(N)=O)C(=O)NC(CC(N)=O)C(=O)N1)C(=O)NCC(N)=O.O.O.O (stereo not drawn) [DESMOPRESSIN]
45 | > 46 | C#C[C@]1(O)CC[C@H]2[C@@H]3CCC4=CCCC[C@@H]4[C@H]3C(=C)C[C@@]21CC [DESOGESTREL]
46 | > 46 | CC1(C)O[C@@H]2C[C@H]3[C@@H]4CC\C5=C\C(=O)\C=C/[C@]5(C)[C@H]4C(O)C[C@]3(C)[C@@]2(O1)C(=O)CO (stereo partly drawn) [DESONIDE]
47 | > 46 | CC(=O)OCC(=O)[C@H]1CC[C@H]2[C@@H]3CCC/4=C/C(=O)CC[C@]4(C)[C@H]3CC[C@]12C [DESOXYCORTICOSTERONE ACETATE]
48 | > 46 | CC(C)(C)C(=O)OCC(=O)C1CCC2C3CCC4=CC(=O)CCC4(C)C3CCC12C (stereo not drawn) [DESOXYCORTICOSTERONE PIVALATE]
49 | > 46 | C[C@@H]1CC2C3CCC4=CC(=O)C=C[C@]4(C)[C@@]3(F)[C@@H](O)C[C@]2(C)[C@@]1(O)C(=O)COC(=O)c1cccc(S(=O)(=O)[O-])c1 (stereo partly drawn) [DEXAMETHASONE METASULFOBENZOATE SODIUM]
50 | > 46 | [Na+].[Na+].CC1CC2C3CCC/4=C/C(=O)/C=C\[C@@]4(C)[C@]3(F)C(O)C[C@]2(C)[C@]1(O)C(=O)CO[P]([O-])([O-])=O (stereo partly drawn) [DEXAMETHASONE SODIUM PHOSPHATE]
51 | > 46 | CCCCC(=O)O[C@]1(C(=O)CO)[C@H](C)C[C@H]2[C@@H]3CCC4=CC(=O)C=C[C@]4(C)[C@@]3(F)[C@@H](O)C[C@@]21C [DEXAMETHASONE VALERATE]
52 | > 46 | CC(C)NCC(O)c1ccc(N[S+](C)(=O)[O-])cc1.Cl (stereo not drawn) [DEXSOTALOLUM]
53 | > 46 | CC(=O)Oc1cccc2c1C(=O)c1c(OC(C)=O)cc(C(=O)O)cc1C2=O [DIACERIN]
54 | > 46 | C=CCSSSCC=C [DIALLYL TRISULFIDE]
55 | > 46 | COc1ccc(Cc2cnc(N)nc2N)cc1OC [DIAVERIDINUM]
56 | > 46 | C\C1=N\C2=C(C=C(Cl)C=C2)[S+]([O-])(=O)N1 [DIAZOXIDE]
57 | > 46 | CC(C)(C)c1ccc2c(S(=O)(=O)[O-])c(C(C)(C)C)ccc2c1 [DIBUNATE SODIUM]

Row | SMILES | IC50 of cell viability [µM]
58 | O=P1(N(CCCl)CCCl)NCCCO1 (stereo not drawn) [Cyclophosphamide] | > 46
59 | CC1(C)C(\C=C(/Cl)Cl)C1C(=O)OC(C#N)C2=CC=CC(OC3=CC=CC=C3)=C2 (stereo not drawn) [Cypermethrin] | > 46
60 | COP(=S)(OC)Oc1ccc([S+](N)(=O)[O-])cc1 [Cythioate] | > 46
61 | O=C([O][Na])C(Cl)Cl [DCA] | > 46
62 | C[N+](C)(C)CCCCCCCCCC[N+](C)(C)C [DECAMETHONIUM] | > 46
63 | CN1C(=O)[C@@H](NC(=O)c2cc3ccccc3[nH]2)N=C(c2ccccc2)c2ccccc21 [DEVAZEPIDUM] | > 46
64 | CCNC(C)Cc1cccc(C(F)(F)F)c1 (stereo not drawn) [DEXFENFLURAMINE] | > 46
65 | C[N@H+]1CC[C@@]23C4OC5=C2C(=CC=C5OC(C)=O)C[C@H]1[C@@H]3\C=C/[C@@H]4OC(C)=O (stereo partly drawn) [DIAMORPHINE HYDROCHLORIDE] | > 46
66 | NCC1CCC(N)C(O[C@@H]2C(O)[C@H](O[C@H]3OC(CO)C(O)C(N)C3O)[C@@H](N)C[C@H]2N)O1.O=[S+]([O-])(O)O (stereo partly drawn) [DIBEKACIN] | > 46
67 | c1ccc2c(c1)sc1ccccc12 [DIBENZOTHIOPHENE] | > 46
68 | CCCCCCCCCCCC(=O)[O][Sn]([CH2]CCC)([CH2]CCC)[O]C(=O)CCCCCCCCCCC [DIBUTYLTIN DILAURATE] | > 46
